Measurements: US11873295B2, “Allosteric chromenone inhibitors of phosphoinositide 3-kinase (PI3K) for the treatment of disease” (Petra Pharma Corporation, priority 2021, dated 2024)

Columns and labels:
[1] = system: PI3K-α (PIK3CA) in MDA-MB-453 cells; test: PI3K-alpha kinase (PIK3CA) activity in vitro cell based assay, MDA-MB-453 cells, AlphaLisa SureFire; conditions: Homo sapiens, MDA-MB-453, 3 h, 0% FBS, 3 hours treatment, relative IC50
Procedure, shortened: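 MDA-MB-453 cells in serum-free MEM with 1 μg/mL insulin treated 3 h with 10-point 1:3 compound dilutions, 0.3% DMSO. Lysates read by AlphaLisa SureFire; percent inhibition relative to DMSO (max) and 1 μM GDC-0032 (min), duplicate means fitted to 4-parameter logistic for relative IC50.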

[2] = biological target: T1, human full length PIK3KA Wild-type (p110α/p85α complex) (Homo sapiens, UniProt P42336); test: PI3K-alpha kinase (PIK3CA) biochemical activity, wild-type, ADP-Glo; conditions: PI3K-α (PIK3CA) biochemical, Soy PI lipid substrate
T1 construct: Recombinant, catalytically active human full length PIK3KA Wild-type and H1047R mutant were purchased as 1:1 complex; 6xHis (N); purchased EMD Millipore Sigma 14-602M
Procedure, shortened: (§1)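 ADP formation, read by ADP-Glo, is run to about 10% ATP turnover at 27 °C with 20 μM ATP and 50 μM PIP2diC8 or soy PI. WT or H1047R p110α/p85α (1–5 nM) is pre-incubated 1 h with compound in HEPES pH 7.4/MgCl2/Triton buffer, 1% DMSO. 10-point 1:3 series, logistic IC50 versus no-enzyme and DMSO controls.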

[3] = biological target: T2, human full length PIK3KA H1047R mutant (p110α/p85α complex) (Homo sapiens, UniProt P42336, H1047R); test: PI3K-alpha kinase (PIK3CA) biochemical activity, H1047R mutant, ADP-Glo; conditions: PI3K-α (PIK3CA) biochemical, H1047R mutant, Soy PI lipid substrate
T2 construct: Recombinant, catalytically active human full length PIK3KA Wild-type and H1047R mutant were purchased as 1:1 complex; 6xHis (N); purchased EMD Millipore Sigma 14-792M
T2 sequence (P42336 whole entry H1047R): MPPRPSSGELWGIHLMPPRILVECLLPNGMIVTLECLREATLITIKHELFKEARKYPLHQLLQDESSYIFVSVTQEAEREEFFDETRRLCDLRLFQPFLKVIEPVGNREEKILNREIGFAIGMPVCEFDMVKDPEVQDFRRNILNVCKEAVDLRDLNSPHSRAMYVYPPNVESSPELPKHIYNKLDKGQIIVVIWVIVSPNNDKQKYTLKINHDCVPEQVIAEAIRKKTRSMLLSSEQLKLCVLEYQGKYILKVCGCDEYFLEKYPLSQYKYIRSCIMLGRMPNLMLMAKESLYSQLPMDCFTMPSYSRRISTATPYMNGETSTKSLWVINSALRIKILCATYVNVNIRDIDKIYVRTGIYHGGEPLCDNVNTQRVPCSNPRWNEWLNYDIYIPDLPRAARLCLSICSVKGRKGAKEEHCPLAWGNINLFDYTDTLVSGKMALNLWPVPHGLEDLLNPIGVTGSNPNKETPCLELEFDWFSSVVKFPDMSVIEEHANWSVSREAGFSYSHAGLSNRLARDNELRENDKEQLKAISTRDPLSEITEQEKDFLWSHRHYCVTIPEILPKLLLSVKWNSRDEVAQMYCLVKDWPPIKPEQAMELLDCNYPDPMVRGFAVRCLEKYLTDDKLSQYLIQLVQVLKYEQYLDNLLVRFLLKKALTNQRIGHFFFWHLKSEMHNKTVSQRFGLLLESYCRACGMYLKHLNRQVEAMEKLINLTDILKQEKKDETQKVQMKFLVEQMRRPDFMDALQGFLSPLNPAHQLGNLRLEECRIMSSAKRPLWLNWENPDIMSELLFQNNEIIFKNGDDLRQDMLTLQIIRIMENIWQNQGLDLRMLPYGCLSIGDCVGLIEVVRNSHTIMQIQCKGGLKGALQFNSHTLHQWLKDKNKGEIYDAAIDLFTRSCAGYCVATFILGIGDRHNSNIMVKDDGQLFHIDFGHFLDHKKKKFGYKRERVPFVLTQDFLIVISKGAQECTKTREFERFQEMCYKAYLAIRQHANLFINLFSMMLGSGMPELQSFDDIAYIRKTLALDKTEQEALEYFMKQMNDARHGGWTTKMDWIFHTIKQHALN
T2 sequence (P27986 whole entry partner): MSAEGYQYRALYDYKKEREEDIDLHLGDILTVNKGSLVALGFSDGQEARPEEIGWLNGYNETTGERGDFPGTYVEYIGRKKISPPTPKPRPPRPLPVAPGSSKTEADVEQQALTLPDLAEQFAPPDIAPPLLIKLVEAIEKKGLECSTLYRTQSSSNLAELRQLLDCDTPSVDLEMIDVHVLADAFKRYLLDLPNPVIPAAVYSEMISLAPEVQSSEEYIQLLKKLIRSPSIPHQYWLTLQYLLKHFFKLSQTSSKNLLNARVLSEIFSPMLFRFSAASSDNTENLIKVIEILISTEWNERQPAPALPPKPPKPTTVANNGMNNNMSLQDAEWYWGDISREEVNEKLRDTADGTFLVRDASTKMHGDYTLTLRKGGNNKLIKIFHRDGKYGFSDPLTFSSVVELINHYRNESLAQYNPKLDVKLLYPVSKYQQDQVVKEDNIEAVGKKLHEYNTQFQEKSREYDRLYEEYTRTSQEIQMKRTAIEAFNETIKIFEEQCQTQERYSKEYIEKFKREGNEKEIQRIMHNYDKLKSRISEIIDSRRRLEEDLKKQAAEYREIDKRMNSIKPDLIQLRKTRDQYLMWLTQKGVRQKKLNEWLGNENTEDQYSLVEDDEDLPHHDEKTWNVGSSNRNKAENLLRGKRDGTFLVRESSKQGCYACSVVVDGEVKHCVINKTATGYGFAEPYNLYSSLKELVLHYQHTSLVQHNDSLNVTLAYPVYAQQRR
Procedure, shortened: as §1

Row | IC50 [1] [nM] | IC50 [2] [nM] | IC50 [3] [nM] | SMILES
1 | < 50 | 1000 to 5000 | < 500 | Cc1cc([C@@H](C)Nc2ccccc2C(=O)O)c2oc(-c3cccc(F)c3)c(C)c(=O)c2c1 [Example 28, 2-[[(1R)-1-[2-(3-Fluorophenyl)-3,6-dimethyl-4-oxo-chromen-8-yl]ethyl]amino]benzoic acid]
2 | < 50 | 500 to 1000 | < 500 | Cc1cc([C@@H](C)Nc2ccccc2C(=O)O)c2oc(-c3ccc(F)cc3)c(C)c(=O)c2c1 [Example 29, 2-[[(1R)-1-[2-(4-Fluorophenyl)-3,6-dimethyl-4-oxo-chromen-8-yl]ethyl]amino]benzoic acid]
3 | < 50 | 500 to 1000 | < 500 | Cc1cc([C@@H](C)Nc2ccccc2C(=O)O)c2oc(-c3cccc(C#N)c3)c(C)c(=O)c2c1 [Example 30, 2-[[(1R)-1-[2-(3-Cyanophenyl)-3,6-dimethyl-4-oxo-chromen-8-yl]ethyl]amino]benzoic acid]
4 | < 50 | 1000 to 5000 | < 500 | Cc1cc([C@@H](C)Nc2ccccc2C(=O)O)c2oc(-c3ccc(C#N)cc3)c(C)c(=O)c2c1 [Example 31, 2-[[(1R)-1-[2-(4-Cyanophenyl)-3,6-dimethyl-4-oxo-chromen-8-yl]ethyl]amino]benzoic acid]
5 | < 50 | 1000 to 5000 | < 500 | Cc1cc([C@@H](C)Nc2ccc(Br)nc2C(=O)O)c2oc(-c3ccccc3)c(C)c(=O)c2c1 [Example 35, 6-Bromo-3-[[(1R)-1-(3,6-dimethyl-4-oxo-2-phenyl-chromen-8-yl)ethyl]amino]-pyridine-2-carboxylic acid]
6 | 50 to 100 | 5000 to 10000 | 500 to 1000 | Cc1cc([C@@H](C)Nc2cccnc2C(=O)O)c2oc(-c3ccccc3)c(C)c(=O)c2c1 [Example 36, 3-[[(1R)-1-(3,6-Dimethyl-4-oxo-2-phenyl-chromen-8-yl)ethyl]amino]-pyridine-2-carboxylic acid]
7 | 100 to 500 | 1000 to 5000 | 500 to 1000 | Cc1cc([C@@H](C)Nc2ccc(C(F)(F)F)cc2C(=O)O)c2oc(-c3ccccc3)c(C)c(=O)c2c1 [Example 37, 2-[[(1R)-1-(3,6-Dimethyl-4-oxo-2-phenyl-chromen-8-yl)ethyl]amino]-5-(trifluoromethyl)benzoic acid]
8 | < 50 | < 500 | < 500 | Cc1cc([C@@H](C)Nc2ccc(F)c(F)c2C(=O)O)c2oc(-c3ccccc3)c(C)c(=O)c2c1 [Example 38, 6-[[(1R)-1-(3,6-Dimethyl-4-oxo-2-phenyl-chromen-8-yl)ethyl]amino]-2,3-difluoro-benzoic acid]
9 | < 50 | 1000 to 5000 | < 500 | Cc1cc([C@@H](C)Nc2ccc(C)nc2C(=O)O)c2oc(-c3ccccc3)c(C)c(=O)c2c1 [Example 39, 3-[[(1R)-1-(3,6-Dimethyl-4-oxo-2-phenyl-chromen-8-yl)ethyl]amino]-6-methyl-pyridine-2-carboxylic acid]
10 | < 50 | 1000 to 5000 | < 500 | Cc1cc([C@@H](C)Nc2ccc(Cl)cc2C(=O)O)c2oc(-c3ccccc3)c(C)c(=O)c2c1 [Example 41, 5-Chloro-2-[[(1R)-1-(3,6-dimethyl-4-oxo-2-phenyl-chromen-8-yl)ethyl]amino]benzoic acid]
11 | < 50 | 1000 to 5000 | < 500 | Cc1cc([C@@H](C)Nc2ccccc2C(=O)O)c2oc(-c3ccccc3F)c(C)c(=O)c2c1 [Example 44, 2-[[(1R)-1-[2-(2-Fluorophenyl)-3,6-dimethyl-4-oxo-chromen-8-yl]ethyl]amino]benzoic acid]
12 | < 50 | < 500 | < 500 | Cc1cc([C@@H](C)Nc2ccc(F)cc2C(=O)O)c2oc(-c3ccccc3)c(C)c(=O)c2c1 [Example 58, 2-[[(1R)-1-(3,6-Dimethyl-4-oxo-2-phenyl-chromen-8-yl)ethyl]amino]-5-fluoro-benzoic acid]

More lines, now with the values behind:

Row | SMILES | IC50 [1] [nM] | IC50 [2] [nM] | IC50 [3] [nM]
13 | Cc1cc([C@@H](C)Nc2ccccc2C(=O)O)c2oc(-c3ccc(-c4ncco4)cc3)cc(=O)c2c1 [Example 32, 2-[[(1R)-1-[6-Methyl-2-(4-oxazol-2-ylphenyl)-4-oxo-chromen-8-yl]ethyl]amino]benzoic acid] | < 50 | 5000 to 10000 | < 500
14 | Cc1cc([C@@H](C)Nc2ccc(C(F)(F)F)cc2C(=O)O)c2oc(-c3ccccc3)cc(=O)c2c1 [Example 33, 2-[[(1R)-1-(6-Methyl-4-oxo-2-phenyl-chromen-8-yl)ethyl]amino]-5-(trifluoromethyl)benzoic acid] | 100 to 500 | 5000 to 10000 | < 500
15 | Cc1cc([C@@H](C)Nc2ccc(C3CC3)nc2C(=O)O)c2oc(-c3ccccc3)c(C)c(=O)c2c1 [Example 40, 6-Cyclopropyl-3-[[(1R)-1-(3,6-dimethyl-4-oxo-2-phenyl-chromen-8-yl)ethyl]amino]-pyridine-2-carboxylic acid] | 50 to 100 | 5000 to 10000 | < 500
16 | Cc1cc([C@@H](C)Nc2ccc(Cl)c(F)c2C(=O)O)c2oc(-c3ccccc3)c(C)c(=O)c2c1 [Example 42, 3-Chloro-6-[[(1R)-1-(3,6-dimethyl-4-oxo-2-phenyl-chromen-8-yl)ethyl]amino]-2-fluoro-benzoic acid] | < 50 | 500 to 1000 | < 500
17 | Cc1cc([C@@H](C)Nc2ccc(C)c(F)c2C(=O)O)c2oc(-c3ccccc3)c(C)c(=O)c2c1 [Example 43, 6-[[(1R)-1-(3,6-Dimethyl-4-oxo-2-phenyl-chromen-8-yl)ethyl]amino]-2-fluoro-3-methyl-benzoic acid] | 50 to 100 | 1000 to 5000 | < 500
18 | COc1cccc(-c2cc(=O)c3cc(C)cc([C@@H](C)Nc4ccccc4C(=O)O)c3o2)c1 [Example 60, 2-[[(1R)-1-[2-(3-Methoxyphenyl)-6-methyl-4-oxo-chromen-8-yl]ethyl]amino]benzoic acid 2,2,2-trifluoroacetic acid] | < 50 | 500 to 1000 | < 500
19 | Cc1cc([C@@H](C)Nc2ccccc2C(=O)O)c2oc(-c3ccc(F)c(F)c3)cc(=O)c2c1 [Example 63, 2-[[(1R)-1-[2-(3,4-DifIuorophenyl)-6-methyl-4-oxo-chromen-8-yl]ethyl]amino]benzoic acid 2,2,2-trifluoroacetic acid] | < 50 | 1000 to 5000 | < 500
20 | COc1ccc(-c2cc(=O)c3cc(C)cc([C@@H](C)Nc4ccccc4C(=O)O)c3o2)cc1 [Example 66, 2-[[(1R)-1-[2-(4-Methoxyphenyl)-6-methyl-4-oxo-chromen-8-yl]ethyl]amino]benzoic acid 2,2,2-trifluoroacetic acid] | < 50 | 1000 to 5000 | < 500
21 | COc1ccccc1-c1cc(=O)c2cc(C)cc([C@@H](C)Nc3ccccc3C(=O)O)c2o1 [Example 67, 2-[[(1R)-1-[2-(2-Methoxyphenyl)-6-methyl-4-oxo-chromen-8-yl]ethyl]amino]benzoic acid 2,2,2-trifluoroacetic acid] | 50 to 100 | > 10000 | < 500
22 | Cc1cc([C@@H](C)Nc2ccccc2C(=O)O)c2oc(-c3cc(F)cc(F)c3)cc(=O)c2c1 [Example 68, 2-[[(1R)-1-[2-(3,5-Difluorophenyl)-6-methyl-4-oxo-chromen-8-yl]ethyl]amino]benzoic acid 2,2,2-trifluoroacetic acid] | < 50 | 1000 to 5000 | < 500
